How the values were obtained:
Assay in all cases: relative viability (nuclei count vs DMSO), 5 days (fraction); higher = more cells survive
AZD5582 + Lapatinib = compound: C[C@@H](C(=O)N[C@@H](C1CCCCC1)C(=O)N2CCC[C@H]2C(=O)N[C@@H]3[C@@H](CC4=CC=CC=C34)OCC#CC#CCO[C@@H]5CC6=CC=CC=C6[C@@H]5NC(=O)[C@@H]7CCCN7C(=O)[C@H](C8CCCCC8)NC(=O)[C@H](C)NC)NC [AZD5582] + CS(=O)(=O)CCNCc1ccc(-c2ccc3ncnc(Nc4ccc(OCc5cccc(F)c5)c(Cl)c4)c3c2)o1 [Lapatinib] (partner 2 µM)
Procedure, shortened: (§1)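 Relative viability is defined as nuclei in treated wells over nuclei in vehicle wells. Duplicate plates were run and medians reported. Lung cancer cell lines in 1536-well plates were dosed by pin tool one day after seeding, with one drug or with a fixed anchor-drug dose plus five library-drug doses (not always all listed) in √10 steps, and nuclei were counted after 5 days.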

[1] = compound: Cn1nnc2c(C(N)=O)ncn2c1=O [Temozolomide] + CS(=O)(=O)N1CCN(Cc2cc3nc(-c4cccc5[nH]ncc45)nc(N4CCOCC4)c3s2)CC1 [Pictilisib] (partner 1 µM)
Procedure, shortened: as §1

[2] = compound: Cn1nnc2c(C(N)=O)ncn2c1=O [Temozolomide] + CC(C)C[C@H](NC(=O)[C@H](Cc1ccccc1)NC(=O)c1cnccn1)B(O)O [Bortezomib] (partner 0.002 µM)
Procedure, shortened: as §1

Temozolomide + AZD7762 = compound: Cn1nnc2c(C(N)=O)ncn2c1=O [Temozolomide] + NC(=O)Nc1cc(-c2cccc(F)c2)sc1C(=O)N[C@H]1CCCNC1 [AZD7762] (partner 0.2 µM)
Procedure, shortened: as §1

Question: Which relative viability (AZD5582 + Lapatinib; first compound 0.001581 µM) does the source give for NCI-H1703 here?
Answer: The relative viability was 0.815.

Question: And the relative viability (AZD5582 + Lapatinib; first compound 0.005 µM)?
Answer: Its relative viability is 0.691.

Question: And the relative viability (AZD5582 + Lapatinib; first compound 0.01581 µM)?
Answer: Its relative viability is 1.16.

Question: What about the relative viability (AZD5582 + Lapatinib; first compound 0.05 µM) of the same cell line?
Answer: Its relative viability is 0.681.

Question: What about the relative viability ([1]; first compound 0.2 µM) of the same cell line?
Answer: The relative viability was 0.249.

Question: What about the relative viability ([1]; first compound 0.6325 µM) of the same cell line?
Answer: The relative viability was 0.255.

Question: What about the relative viability ([1]; first compound 2 µM) of the same cell line?
Answer: Its relative viability is 0.301.

Question: And the relative viability ([1]; first compound 20 µM)?
Answer: Its relative viability is 0.272.

Question: And the relative viability ([2]; first compound 0.2 µM)?
Answer: Its relative viability is 0.29.

Question: And the relative viability ([2]; first compound 0.6325 µM)?
Answer: Its relative viability is 0.471.

Question: What about the relative viability ([2]; first compound 2 µM) of the same cell line?
Answer: The relative viability was 0.365.

Question: And the relative viability ([2]; first compound 6.325 µM)?
Answer: Its relative viability is 0.241.

Question: And the relative viability ([2]; first compound 20 µM)?
Answer: Its relative viability is 0.284.

Question: And the relative viability (Temozolomide + AZD7762; first compound 0.2 µM)?
Answer: Its relative viability is 0.137.

Question: What about the relative viability (Temozolomide + AZD7762; first compound 0.6325 µM) of the same cell line?
Answer: Its relative viability is 0.1.

Question: What about the relative viability (Temozolomide + AZD7762; first compound 2 µM) of the same cell line?
Answer: The relative viability was 0.125.

Question: And the relative viability (Temozolomide + AZD7762; first compound 6.325 µM)?
Answer: The relative viability was 0.147.

Question: What about the relative viability (Temozolomide + AZD7762; first compound 20 µM) of the same cell line?
Answer: The relative viability was 0.107.

Reference: the supplement of paper PMC10307832
